This passage reports IC50 and activation results from patent US20100056526A1, “HETEROMONOCYCLIC COMPOUND AND USE THEREOF” (Takeda Pharmaceutical Company Limited, priority 2006, published 2010).

The target of one experiment is T1, human AT1 receptor (Homo sapiens, UniProt P30556).
T1 construct: expressed in transfected cells; host or cells: CHO-K1
T1 sequence (P30556 1-359): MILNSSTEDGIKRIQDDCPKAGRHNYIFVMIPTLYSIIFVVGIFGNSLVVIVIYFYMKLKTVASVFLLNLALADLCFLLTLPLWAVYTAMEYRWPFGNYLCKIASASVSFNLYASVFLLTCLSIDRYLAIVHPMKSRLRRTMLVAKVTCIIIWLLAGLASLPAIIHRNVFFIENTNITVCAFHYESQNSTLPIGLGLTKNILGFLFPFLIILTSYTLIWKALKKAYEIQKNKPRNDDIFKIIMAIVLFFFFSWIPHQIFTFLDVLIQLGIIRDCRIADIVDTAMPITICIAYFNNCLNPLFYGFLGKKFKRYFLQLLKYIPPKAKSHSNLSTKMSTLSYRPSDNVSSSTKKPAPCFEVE
The experiment in a line: Binding assay using human AT1 receptor-expressing CHO-K1 cell membrane fraction ([125I]-angiotensin II). To be noted: 22.5 pM [125I]-angiotensin II, 9 μg AT1 membrane, 1 hr room temperature; read-out: AT1 receptor binding inhibitory action (IC50 (nM)). A digest of the protocol: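 CHO-K1 membranes stably expressing AT1 (9 μg) incubated with 22.5 pM [125I]-angiotensin II and compound in 50 mM Tris pH 7.4, 10 mM MgCl2, with or without 0.3 mg/mL fatty acid-free BSA, 1 hr at room temperature. Bound radioactivity counted after GF/C filtration; nonspecific binding with 1 μM CV-11974; IC50 calculated.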

In another experiment the target is T2, PPARγ (Homo sapiens, UniProt P37231).
T2 construct: expressed in transfected cells; host or cells: CHO-K1
T2 sequence (P37231 1-477 isoform P37231-2): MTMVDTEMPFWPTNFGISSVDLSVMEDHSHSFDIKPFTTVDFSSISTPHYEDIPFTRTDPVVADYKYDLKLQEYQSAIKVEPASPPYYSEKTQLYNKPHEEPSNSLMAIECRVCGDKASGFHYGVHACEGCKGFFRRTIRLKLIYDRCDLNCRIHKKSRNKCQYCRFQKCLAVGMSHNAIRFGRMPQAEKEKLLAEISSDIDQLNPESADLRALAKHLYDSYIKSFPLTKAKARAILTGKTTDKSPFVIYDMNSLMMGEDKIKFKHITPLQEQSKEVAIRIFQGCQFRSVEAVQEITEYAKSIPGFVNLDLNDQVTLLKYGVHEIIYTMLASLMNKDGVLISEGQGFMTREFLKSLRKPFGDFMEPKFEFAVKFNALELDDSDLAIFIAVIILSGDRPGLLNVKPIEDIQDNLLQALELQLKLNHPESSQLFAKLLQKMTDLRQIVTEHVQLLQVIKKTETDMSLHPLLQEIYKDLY
T2 sequence (P19793 1-462 partner): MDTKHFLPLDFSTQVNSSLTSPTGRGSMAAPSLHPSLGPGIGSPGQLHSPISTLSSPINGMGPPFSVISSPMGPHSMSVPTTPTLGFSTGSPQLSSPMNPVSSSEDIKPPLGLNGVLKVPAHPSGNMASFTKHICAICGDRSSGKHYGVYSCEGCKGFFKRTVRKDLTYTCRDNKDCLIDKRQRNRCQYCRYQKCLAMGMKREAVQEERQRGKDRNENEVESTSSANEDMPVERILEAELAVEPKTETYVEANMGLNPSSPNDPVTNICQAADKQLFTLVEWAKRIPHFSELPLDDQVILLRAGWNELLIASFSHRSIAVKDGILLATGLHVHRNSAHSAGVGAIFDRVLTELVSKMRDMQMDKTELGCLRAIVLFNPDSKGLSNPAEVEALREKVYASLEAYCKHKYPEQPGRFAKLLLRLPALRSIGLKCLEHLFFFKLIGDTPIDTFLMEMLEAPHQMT
The experiment in a line: Evaluation of PPARγ activating action (luciferase reporter in PPARγ:RXRα:4ERPP/CHO-K1 cells). The experiment is classed as cell-based. To be noted: CHO-K1, 24 h; test compound 10^−6 M; luciferase activity relative to control compound X (1 μM) = 100%, non-administration group = 0%; read-out: PPARγ activating action (activation % (10^−6 M)). In outline: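 CHO-K1 cells stably carrying PPARγ, RXRα and a 4ERPP luciferase reporter were treated with compound for 1 day at 37 °C in F12 medium with 0.1% fatty acid-free BSA. Luciferase activity was read and scaled between no compound (0%) and reference agonist compound X at 1 μM (100%).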
In general terms: In a reporter assay the amount or activity of a reporter protein is the signal.

Turning to `CCCc1nc(CC)n(-c2ccc(OC3(CO)CCCC3)cc2)c(=O)c1Cc1ccc(-c2ccccc2-c2noc(=O)[nH]2)cc1` [Example 390, 2-ethyl-3-(4-{[1-(hydroxymethyl)cyclopentyl]oxy}phenyl)-5-{[2′-(5-oxo-4,5-dihydro-1,2,4-oxadiazol-3-yl)biphenyl-4-yl]methyl}-6-propylpyrimidin-4(3H)-one], the IC50 (in general, the concentration that inhibits the measured activity by half) at human AT1 receptor was 1.2 nM. For the same molecule, on PPARγ, the activation at 1 µM was 19.9%.
For `CCCc1nc(CC)n(-c2ccc(OC(COCC)COCC)cc2)c(=O)c1Cc1ccc(-c2ccccc2-c2noc(=O)[nH]2)cc1` [Example 395, 3-{4-[2-ethoxy-1-(ethoxymethyl)ethoxy]phenyl}-2-ethyl-5-{[2′-(5-oxo-4,5-dihydro-1,2,4-oxadiazol-3-yl)biphenyl-4-yl]methyl}-6-propylpyrimidin-4(3H)-one], the half-maximal inhibitory concentration (IC50) at human AT1 receptor turned out to be 1.7 nM. For the same molecule, the activation at 1 µM at PPARγ turned out to be 16%.
Regarding `CCCc1nc(C)n(-c2ccc(OC(C)C)cc2)c(=O)c1Cc1ccc(-c2ccccc2-c2noc(=O)[nH]2)cc1Cl` [Example 396, 5-{[3-chloro-2′-(5-oxo-4,5-dihydro-1,2,4-oxadiazol-3-yl)biphenyl-4-yl]methyl}-3-(4-isopropoxyphenyl)-2-methyl-6-propylpyrimidin-4(3H)-one], at human AT1 receptor, the IC50 came to 2.2 nM. In addition, the activation at 1 µM on PPARγ turned out to be 50.6%.
As for `CCCc1nc(C)n(-c2ccc3c(c2)CC(C)(C)O3)c(=O)c1Cc1ccc(-c2ccccc2-c2noc(=O)[nH]2)cc1Cl` [Example 397, 5-{[3-chloro-2′-(5-oxo-4,5-dihydro-1,2,4-oxadiazol-3-yl)biphenyl-4-yl]methyl}-3-(2,2-dimethyl-2,.3-dihydro-1-benzofuran-5-yl)-2-methyl-6-propylpyrimidin-4(3H)-one], the IC50 at human AT1 receptor was found to be 2.1 nM. Besides, the activation at 1 µM on PPARγ came to 48.6%.
For the molecule `CCCc1nc(C)n(-c2ccc(OC(C)C)cc2)c(=O)c1Cc1ccc(-c2ccccc2-c2noc(=O)[nH]2)c(OC)c1` [Example 400, 3-(4-isopropoxyphenyl)-5-{[2-methoxy-2′-(5-oxo-4,5-dihydro-1,2,4-oxadiazol-3-yl)biphenyl-4-yl]methyl}-2-methyl-6-propylpyrimidin-4(3H)-one], the IC50 at human AT1 receptor was 2.8 nM. Further, the activation at 1 µM at PPARγ was 21.3%.
`CCCc1nc(C)n(-c2ccc(OC(C)C)cc2)c(=O)c1Cc1ccc(-c2ccccc2-c2noc(=O)[nH]2)c(F)c1` [Example 401, 5-{[2-fluoro-2′-(5-oxo-4,5-dihydro-1,2,4-oxadiazol-3-yl)biphenyl-4-yl]methyl}-3-(4-isopropoxyphenyl)-2-methyl-6-propylpyrimidin-4(3H)-one]: the IC50 on human AT1 receptor is 1.5 nM. Further, on PPARγ, the activation at 1 µM came to 25.3%.
On the same counts, the results for `CCCc1nc(C)n(-c2ccc3c(c2)CC(C)(C)O3)c(=O)c1Cc1ccc(-c2ccccc2-c2noc(O)n2)c(F)c1` [Example 402, 3-(2,2-dimethyl-2,3-dihydro-1-benzofuran-5-yl)-5-{[2-fluoro-2′-(5-oxo-4,5-dihydro-1,2,4-oxadiazol-3-yl)biphenyl-4-yl]methyl}-2-methyl-6-propylpyrimidin-4(3H)-one] are 1.8 nM and 24.1%.
On to `CCCc1nc(CC)n(-c2ccc(OC3CCOCC3)nc2)c(=O)c1Cc1ccc(-c2ccccc2-c2noc(=O)[nH]2)cc1` [Example 406, 2-ethyl-5-{[2′-(5-oxo-4,5-dihydro-1,2,4-oxadiazol-3-yl)biphenyl-4-yl]methyl}-6-propyl-3-[6-(tetrahydro-2H-pyran-4-yloxy)pyridin-3-yl]pyrimidin-4(3H)-one], for which the IC50 at human AT1 receptor came to 1.5 nM. Moreover, the activation at 1 µM at PPARγ was found to be 41.9%.
`C=COc1ccc(-n2c(C)nc(CCC)c(Cc3ccc(-c4ccccc4-c4noc(=O)[nH]4)cc3F)c2=O)cc1` [Example 408, 5-{[3-fluoro-2′-(5-oxo-4,5-dihydro-1,2,4-oxadiazol-3-yl)biphenyl-4-yl]methyl}-2-methyl-6-propyl-3-[4-(vinyloxy)phenyl]pyrimidin-4(3H)-one]: on human AT1 receptor, the IC50 was found to be 1.4 nM. Besides, the activation at 1 µM at PPARγ came out at 48.7%.
On the same counts, the results for `CCCc1nc(CC)n(-c2ccc(OC3CCOC(C)(C)C3)cc2)c(=O)c1Cc1ccc(-c2ccccc2-c2noc(=O)[nH]2)cc1` (centres unmarked) [Example 413, 3-{4-[(2,2-dimethyltetrahydro-2H-pyran-4-yl)oxy]phenyl}-2-ethyl-5-{[2′-(5-oxo-4,5-dihydro-1,2,4-oxadiazol-3-yl)biphenyl-4-yl]methyl}-6-propylpyrimidin-4(3H)-one] are 1.7 nM and 18.9%.
With `CCCc1nc(CC)n(-c2ccc(O[C@H]3CC[C@H](O)CC3)cc2)c(=O)c1Cc1ccc(-c2ccccc2-c2noc(=O)[nH]2)cc1` [Example 414, 2-ethyl-3-{4-[(trans-4-hydroxycyclohexyl)oxy]phenyl}-5-{[2′-(5-oxo-4,5-dihydro-1,2,4-oxadiazol-3-yl)biphenyl-4-yl]methyl}-6-propylpyrimidin-4(3H)-one], at human AT1 receptor, the IC50 is 1.1 nM. Moreover, on PPARγ, the activation at 1 µM is 45%.
For the molecule `CCCc1nc(CC)n(-c2ccc(O[C@H]3CC[C@@H](O)CC3)cc2)c(=O)c1Cc1ccc(-c2ccccc2-c2noc(=O)[nH]2)cc1` [Example 415, 2-ethyl-3-{4-[(cis-4-hydroxycyclohexyl)oxy]phenyl}-5-{[2′-(5-oxo-4,5-dihydro-1,2,4-oxadiazol-3-yl)biphenyl-4-yl]methyl}-6-propylpyrimidin-4(3H)-one], the IC50 at human AT1 receptor is 1 nM. Moreover, the activation at 1 µM at PPARγ was 49.7%.
With `CCCc1nc(CC)n(-c2ccc(OC3CCC(=O)CC3)cc2)c(=O)c1Cc1ccc(-c2ccccc2-c2noc(=O)[nH]2)cc1` [Example 416, 2-ethyl-3-{4-[(4-oxocyclohexyl)oxy]phenyl}-5-{[2′-(5-oxo-4,5-dihydro-1,2,4-oxadiazol-3-yl)biphenyl-4-yl]methyl}-6-propylpyrimidin-4(3H)-one], the IC50 at human AT1 receptor was 1.2 nM. Further, the activation at 1 µM at PPARγ came to 53.5%.
Turning to `CCCc1nc(CC)n(-c2ccc(O[C@@H]3C[C@@H](C)O[C@@H](C)C3)cc2)c(=O)c1Cc1ccc(-c2ccccc2-c2noc(=O)[nH]2)cc1` [Example 417, 3-(4-{[(2R,4s,6S)-2,6-dimethyltetrahydro-2H-pyran-4-yl]oxy}phenyl)-2-ethyl-5-{[2′-(5-oxo-4,5-dihydro-1,2,4-oxadiazol-3-yl)biphenyl-4-yl]methyl}-6-propylpyrimidin-4(3H)-one], the IC50 at human AT1 receptor stood at 1.6 nM. The activation at 1 µM on PPARγ amounted to 33.7%.
On the same counts, the results for `CCCc1nc(CC)n(-c2ccc(OC3(CO)CCC3)cc2)c(=O)c1Cc1ccc(-c2ccccc2-c2noc(=O)[nH]2)cc1` [Example 419, 2-ethyl-3-(4-{[1-(hydroxymethyl)cyclobutyl]oxy}phenyl)-5-{[2′-(5-oxo-4,5-dihydro-1,2,4-oxadiazol-3-yl)biphenyl-4-yl]methyl}-6-propylpyrimidin-4(3H)-one] are 1.3 nM and 27.2%.
For `CCCc1nc(CC)n(-c2ccc(OC3CCCC(O)C3)cc2)c(=O)c1Cc1ccc(-c2ccccc2-c2noc(=O)[nH]2)cc1` (centres unmarked) [Example 422, 2-ethyl-3-{4-[(3-hydroxycyclohexyl)oxy]phenyl}-5-{[2′-(5-oxo-4,5-dihydro-1,2,4-oxadiazol-3-yl)biphenyl-4-yl]methyl}-6-propylpyrimidin-4(3H)-one], on human AT1 receptor, the IC50 was 0.9 nM. The activation at 1 µM on PPARγ was found to be 22.2%.
